Experimental data as given in US7268212B2, “Ligand of G protein-coupled receptor protein and DNA thereof” (Takeda Pharmaceutical Company Limited, priority 2001, dated 2007).
No end group written: not given here.

How the values were obtained:
bovine GPR7 = molecular target: T1, bovine GPR7 (Bos taurus, UniProt Q8MJV3); experiment: Intracellular cAMP production suppression activity on bovine GPR7-expressed CHO cells; format: cell-based; conditions: forskolin-promoted cAMP production; receptor-expressed CHO cells; read-out: IC50 (nM) bovine GPR7, cAMP production inhibition
T1 construct: expressed in transfected cells; host or cells: CHO cells
T1 sequence (Q8MJV3 1-331): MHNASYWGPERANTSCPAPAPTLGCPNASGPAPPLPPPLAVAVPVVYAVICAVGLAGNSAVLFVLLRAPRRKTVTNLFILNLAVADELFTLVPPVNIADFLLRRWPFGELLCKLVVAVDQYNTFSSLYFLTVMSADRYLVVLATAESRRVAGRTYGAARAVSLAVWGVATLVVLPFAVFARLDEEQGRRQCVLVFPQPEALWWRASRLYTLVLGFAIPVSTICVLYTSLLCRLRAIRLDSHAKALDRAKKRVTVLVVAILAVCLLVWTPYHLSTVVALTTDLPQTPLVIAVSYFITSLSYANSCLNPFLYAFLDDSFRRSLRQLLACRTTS
Protocol: The intracellular cAMP production suppression activity of peptides associated with various GPR7 ligands on CHO cells, in which human GPR7, bovine GPR8, human GPR8, human GPR8, bovine GPR8 and rat GPR7 were expressed, was examined. […] An assay buffer was prepared by adding 20 mM HEPES, pH7.4, 0.1% bovine serum albumin and 0.2 mM 3-isobutyl-1-methylxanthine (Sigma) to Hanks' Balanced Salt Solution (Gibco BRL). The plate incubated overnight was first washed twice with 150 μl of the assay buffer, and then exchanged with 150 μl of the assay buffer, followed by incubation for 30 minutes at 37° C. in 100% air. By adding 4 μM forskolin to the assay buffer, a buffer for sample dilution was prepared and the stock solution (10^−2 M of 10^−3 M) was diluted with the buffer thus obtained to prepare sample solutions in final concentrations of 10^−6 M, 10^−7 M, 10^−8 M, 10^−9 M and 10^−10 M. The plate incubated with the assay buffer for 30 minutes was taken out. After washing twice with the assay buffer, 50 μl of the assay buffer and then 50 μl of the sample solution were added thereto. Each sample was assayed in triplet. […] A difference between the maximum cAMP level and the cAMP level when each sample was added was calculated and the percentage of cAMP production level promoted by forskolin was worked out, which was made the cAMP production inhibition rate.

Wistar male rats = experiment: Effect of GPR7 ligand on feed uptake in rat by lateral ventricular injection; format: in vivo; conditions: 10 nmols/rat into the lateral ventricle; from 2 hours after the administration; compared to the control group (distilled water)
Protocol: The effect of GPR7 ligand (GPR7L) on feed uptake in rat by lateral ventricular injection was examined. Rat was caged at room temperature of 25° C. while lighting for 8 to 20 o'clock. Mature Wistar male rats (300-320 g body weight upon surgery) were anesthetized with an intraperitoneal injection of 50 mg/kg pentobarbital and placed in a rat brain stereotaxic instrument. The level of incisor bar was 3.3 mm below the interaural line. The skull was exposed, and using a dental drill a hole was made on the bone for implantation of guide cannula AG-8 (inner diameter of 0.4 mm, outer diameter of 0.5 mm, EICOM Corporation). In addition, an anchor screw was buried at 3 positions around the hole. A stainless-steel guide cannula, AG-8, was inserted in such a manner that the tip was situated at the upper part of the lateral ventricle. Stereotaxic coordinates were taken from the atlas according to the atlas of Paxinos & Watson (1986) from bregma AP: −0.8 mm, L:1.5 mm and H:−4.5 mm. The guide cannula was secured to the skull using a dental cement and an anchor screw. […]
After the guide cannula was implanted, rats were caged for about a week to recover from surgical operation. […] The infusion was continued from 19:00 to 20:00 o'clock, and the feed uptake thereafter was measured with passage of time, using a feed uptake measuring device Feed-Scale (Columbus, Inc.).

With “WYKPTAGQGYYSVGRAAGLLSGFHRSPYA [Trp1-bovine GPR7L(29)]” the IC50 (bovine GPR7) was 1.2 nM and the feed uptake (Wistar male rats) was “significant increase in feed uptake”.
